# US20080305049A1, “Mri Contrast Agents for Diagnosis and Prognosis of Tumors” (priority 2005, published 2008)
# “Also recorded” adds a separate entry of the source.
# How the values were obtained:
# [1] = system: MDA-MB-231 cells; assay: proliferation of ER− human breast cancer cells (MTT method)
# Description: The number of cells was determined spectrophotometrically using the MTT [3-(4,5-dimethylthiazol-2-yl)-2,5-diphenyltetrazolium bromide] method. The samples are read using an ELISA plate reader at a wavelength of 570 nm. The amount of color produced is directly proportional to the number of viable cells.
# [2] = system: MCF7, T47D and ZR-75-1 ER+ human breast cancer cells; assay: proliferation of ER+ human breast cancer cells (MTT method); assay type: cell-based; details: for agonistic or antagonistic effect on proliferation: 2 μM
# Description: The agonistic or antagonistic effects of the conjugates and metal complexes thereof were studied by their capacity to enhance or arrest cell growth, respectively.
# The vehicle (water) was added as control and served to normalize the changes in cell number.
# [3] = molecular target: T1, human recombinant ER (ERα) (Homo sapiens, UniProt P03372); assay: competitive radiometric binding assay with tritiated estradiol; details: for IC50 / Ki: human recombinant ER; for IC50: read-out: IC50, concentration of competing ligand required to replace half of the ER bound tritiated estradiol; for Ki: read-out: Ki, calculated equilibrium concentration of competing ligand that binds half of the ER binding sites
# T1 sequence (P03372 1-595): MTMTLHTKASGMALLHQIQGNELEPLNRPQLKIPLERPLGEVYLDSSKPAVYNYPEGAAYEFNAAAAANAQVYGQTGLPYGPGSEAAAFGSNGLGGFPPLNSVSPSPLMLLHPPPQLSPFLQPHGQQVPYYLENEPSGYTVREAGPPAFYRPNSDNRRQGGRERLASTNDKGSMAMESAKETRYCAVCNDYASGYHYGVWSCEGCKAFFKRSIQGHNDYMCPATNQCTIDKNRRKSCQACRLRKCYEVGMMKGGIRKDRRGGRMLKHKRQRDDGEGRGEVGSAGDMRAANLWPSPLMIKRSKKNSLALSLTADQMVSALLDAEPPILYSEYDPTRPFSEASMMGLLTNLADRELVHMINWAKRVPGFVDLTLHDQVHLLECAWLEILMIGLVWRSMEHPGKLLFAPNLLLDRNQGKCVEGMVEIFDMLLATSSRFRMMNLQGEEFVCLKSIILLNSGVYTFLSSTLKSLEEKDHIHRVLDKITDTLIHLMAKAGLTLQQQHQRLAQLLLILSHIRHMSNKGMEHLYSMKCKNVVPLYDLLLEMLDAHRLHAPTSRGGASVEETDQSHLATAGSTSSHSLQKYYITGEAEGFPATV
# Description: This procedure yields IC50 displacement values for the inhibition of the binding of tritiated estradiol to the ER. Low IC50 values correlates to high binding affinities.
# The binding affinities were determined by performing a competitive radiometric-binding assay using tritiated estradiol and human recombinant ER. […] Table 1 presents the concentration of the competing ligand required to replace half of the ER bound tritiated estradiol, IC50, and the calculated equilibrium concentration of the competing ligand that will bind to half of the ER binding sites, Ki.
# [4] = molecular target: T2, estrogen receptor (ER)-α in MCF7 cells (Homo sapiens, UniProt P03372); assay: Western blot of ER-α level relative to tubulin; assay type: cell-based; details: 6 hours after treatment
# T2 construct: endogenous in cells; host or cells: MCF7 human breast cancer cells
# T2 sequence (P03372 1-595): T1 sequence (P03372 1-595)
# From the text: FIG. 10B is a graph showing the quantitative analysis of the blots in terms of ER expression relative to tubulin expression under the various treatments as indicated in the figure.
# We then carried out a Western blot for determining the level of the estrogen receptor protein using an anti-ER antibody to identify ER in the blot. […] FIG. 10A depicts the Western blot and FIG. 10B depicts quantitation of the blot: the amount of ER relative to tubulin, assuming tubulin is constant under all treatment manipulations.
# [5] = T1 and T2 relaxivity of water at 4.7 Tesla; assay type: physicochemical
# Description: The T1 and T2 relaxivity of the MRI probes, i.e., the Gd complexes of the invention, were measured in saline solutions using standard protocols (i.e inversion recovery for T1 relaxivity and Carr-Purcell-Meiboom-Gill (CPMG) for T2 relaxivity).
# The capacity of the Gd complex 7 to serve as a relaxation contrast agent was determined by measuring its relaxivity. […] For the T1 relaxivity measurement, a spin echo sequence was employed with a varying repetition time-TR (11 TRs, from 50 to 15,000 msec) and a fixed echo time of 23 msec.
# The T1 relaxivity was determined from the slope.
# We determined the MRI properties of the novel paramagnetic ER ligands. T1 and T2 relaxation rates of the water protons were measured as a function of the concentration of the Gd complex 7.
# [6] = toxicology after intravenous injection; assay type: in vivo, CD1-NU mice
# From the text: (§1) Animals: CD1-NU immunodeficient female mice (6-10 weeks old, 20-25 g weight) were provided by the Animal Unit of the Weizmann Institute of Science. During the MRI experiments, the animals were anesthetized by inhalation of 1% Isoflurane in an O2:N2O (3:7) mixture, applied through a nose cone. All animals were handled according to the regulations formulated by the Institutional Animal Care and Use Committee (IACUC) of the Weizmann Institute of Science (Rehovot, Israel).
# Toxicology: The probes (e.g. Gd complex 7) were injected into the tail vein of CD1-NU mice at a varying dose in the range of 0.024 to 1.0 mmol/kg weight.
# [7] = in vivo MRI monitoring of distribution and binding in mice with orthotopic MCF7 breast tumor; set-up: species or system CD1-NU immunodeficient female mice; details: female, CD1-NU, mouse, tumor (orthotopic MCF7 breast tumor), intravenous; 24 hours after bolus 0.024 mmol/kg, calculated from relaxation rates; read-out: apparent concentration in the tumor
# From the text: as §1
# (§2) Tumors: ER^+ human breast cancer MCF-7 cells were implanted orthotopically into the mammary gland of the CD1-NU immunodeficient female mice, as previously described (Paran et al., 2004). The mice were ovariectomized to eliminate any […] estrogen. Initially a pellet of 17β-estradiol (Innovative Research, Florida) was implanted before the cells were injected, to ensure growth of the tumors. Within 3 weeks, tumors developed to a size of about ˜0.5 ml and consisted of highly proliferating cells. At this stage we removed the estrogen pellet and after a week administered the MRI probe. The extent of accumulation in the tumors was studied in vivo and in excised tumors and was then compared to results obtained by the standard immunostaining technique.
# (§3) MRI: The accumulation of the MRI probe was tested by scanning the tumors before the injection of the probe and at times after the injection, using T1 weighted and T2 weighted pulse sequences. MR images were recorded with a 4.7 Tesla scanner (Bruker; Biospec 4.7 T/30 cm bore, dedicated Doty resonator, 3 cm diameter, 200 MHz for protons). The MRI parameters for scanning T2-weighted images were: 2D Spin echo with: TE/TR=69 msec/4000 msec, field of view (FOV) 5 cm, slice thickness 1.2 mm and 128×256 matrix. For T1 measurements two pulse sequences were employed: 1. Inversion recovery pulse sequence with varying T1 (n=20) ranging from 10 to 10000 msec, TE/TR=3.15 msec/15 msec, flip angle 10 degrees; 2. Fast gradient echo sequence. The spatial resolution was as in the T2 weighted image except the matrix was 128×128.
# (§4) Distribution of the MR probes: The distribution of the Gd complex 7 in the blood, inner organs and the tumors was monitored over a period of 24 h after a bolus injection of 7 into the tail vein at a dose ranging from 0.024 to 0.4 mmol/kg.
# (§5) The contrast agent distribution was monitored, alternating between two pulse sequences: 1. T1-weighted, 3D gradient echo with TE/TR of 4.3/18.3 ms; a 30° flip angle, 2. 2D inversion or saturation recovery sequence with varying T1 (n=20) ranging from 10 to 10000 msec, and gradient echo acquisition with TE/TR of 3.5/15 msec and 100 flip angel. The latter sequence enabled us to map the T1 relaxation time. The spatial resolution was the same for both sequences and during the whole experiment time, namely, 0.2×0.4×1.2 mm^3. Susceptibility gradient echo and T2 weighted spin echo protocols were employed to generate the MR images of the animal.
# (§6) Several protocols of administration of the Gd complex 7 were examined: a high and low dose bolus injection of 0.4 mmol/kg and 0.024 mmol/kg, respectively (FIGS. 7 and 8), and a slow infusion (drip) protocol over 60 min of the high dose.
# (§7) To determine the ER-binding of 7 administered at low concentration (0.024 mmol/kg), we performed measurements up to 24 after its administration, when all the tissues appeared to be cleared from the probe. FIGS. 7A-7B show the time course of the T1 relaxation in the bladder, orthotopic MCF7 breast tumor and muscle of a female CD1-NU immunodeficient mouse after a bolus administration of a low dose of 7 (0.024 mmol/kg) (7B) and the area of each organ as marked on the upper T2-weighted image (FIG. 7A). The images at 0, 0.5 and 2.5 h were recorded with the anaesthetized mouse in the same position. After the 2.5 h measurement, the mouse was returned to its cage and was again scanned under anesthesia at the 7 and 24 hours time points. […] The central slice of each organ is presented. […]
# [8] = system: orthotopic ER+ MCF7 breast tumor; assay: as above; set-up: species or system CD1-NU immunodeficient female mice
# From the text: as §1, §2, §3, §4, §5, §6, §7
# [9] = system: rat uterus; assay: MRI of the uterus of ovariectomized rats; assay type: in vivo; details: 0.024 mmol/kg
# Description: We developed and applied in vivo tests of the Gd complex 7 in the classical target organ of estrogen (the rat uterus). […] In order to be able to delineate the uterus, we applied a newly developed segmentation algorithm that enables us to automatically monitor changes in the entire uterine volume and in the changing nuclear relaxation rates due to interaction with 7. […] The endometrium volume increased by 45%, over the entire monitoring period of 5.5 hours, indicating response to the Gd complex 7, as shown in FIGS. 11A-11E.
# FIG. 11A depicts the T2-weighted images prior to administration and FIG. 11B depicts the T2-weighted images after 5 hours of administration of compound 7 (the endometrium is circled in green) with the corresponding 3D automatically delineated right horn (FIGS. 11C and 11D) and the corresponding changes in the volume during the entire time course (FIG. 11E).
# [10] = bolus 0.4 mmol/kg, about 5 hours
smiles,measurement,setting,value
"C[C@]12CC[C@@H]3c4ccc(O)cc4CC[C@H]3[C@@H]1CC[C@@H]2O [17β-estradiol, reference compound]",sensitivity of proliferation of ER− cells,[1],neither sensitive
C[C@]12CCC3c4ccc(O)cc4CCC3C1CC[C@@]2(O)C#Cc1cc(CN(CC(=O)O)CC(=O)O)nc(CN(CC(=O)O)CC(=O)O)c1 (stereo partly shown) [Compound 6],sensitivity of proliferation of ER− cells,[1],neither sensitive
same,dose at which induction of proliferation occurred,[2]; ER+ human breast cancer cells,nanomolar
same,stimulation of cell growth,"[2]; MCF7, T47D, ZR-75-1, 30 nM or 1 μM",stimulated the growth of the cells in a similar manner to that of estrogen
same,agonistic or antagonistic effect on proliferation,"[2]; MCF7, T47D",agonistic
same,toxicity to cells,[2]; high concentrations,toxic at high concentrations
same,IC50,[3],4400 nM
same,Ki,[3],400 nM
same,effect on ER-α level,[4],induced partial degradation of the receptor; also recorded: induce ER reduction
CC12CCC3c4ccc(O)cc4CCC3C1CCC2(O)C#Cc1cc(CN(CC(=O)O)CC(=O)O)nc(CN(CC(=O)O)CC(=O)O)c1 (stereo not shown) [Compound 7],sensitivity of proliferation of ER− cells,[1],neither sensitive
same,T1 relaxivity,[5],7.99 ± 0.05 mM⁻¹ s⁻¹
same,T2 relaxivity,[5],30.8 ± 1.0 mM⁻¹ s⁻¹
same,toxicity (summary statement),[6]; mice and rats,non toxic in mice and rats
same,tolerability of repetitive administration,[6]; repetitive administration 3-7 days apart,appeared to be harmless
same,lethality and adverse effects,"[6]; up to 0.4 mmol/kg, intravenous, CD1-NU mice",not lethal and does not cause obvious adverse effects; also recorded: non-toxic
same,concentration at 24 h,[7],2500 nM
same,final concentration in tumor versus muscle,[8]; 2 h after 1 hour slow infusion of 0.4 mmol/kg,similar
same,muscle T1 relaxation rate (R1),[8]; 24 hours after 0.024 mmol/kg,returned to that measured before
same,tumor T1 relaxation rate (R1) increase,[8]; 24 hours after 0.024 mmol/kg,small but persistent
same,residual amount in the muscle,[8]; 24 hours after bolus 0.024 mmol/kg,no residual amount
same,clearance through the kidneys into the urine compared with GdDTPA,[8]; bolus 0.4 mmol/kg,several folds slower
same,time of full clearance after administration,[8]; bolus 0.4 mmol/kg,24 h
same,MRI signal enhancement in the muscle,[8]; [10],declined close to pre-contrast administration
same,MRI signal enhancement in the tumor,[8]; [10],persisted throughout the experimental time
same,binding affinity to ER (in words),[3],"strong binding affinity to ER, comparable to that of tamoxifen"
same,effect on ER-α level,[4],induced partial degradation of the receptor; also recorded: induce ER reduction
same,effect in the uterus,[9],agonistic effect in the uterus
same,increase of endometrium volume,[9]; over 5.5 hours,45%
CC/C(=C(\c1ccc(C#Cc2cc(CN(CC(=O)O)CC(=O)O)nc(CN(CC(=O)O)CC(=O)O)c2)cc1)c1ccc(OCCN(C)C)cc1)c1ccccc1 [Compound 16],hormonal activity (summary statement),[2],antagonist to estrogen
same,agonistic or antagonistic effect on proliferation,"[2]; MCF7, T47D",did not elicit an estrogenic effect
same,IC50,[3],5300 nM
same,Ki,[3],480 nM
same,effect on ER-α level,[4],acted like tamoxifen; also recorded: do not affect ER level
"C[C@]12CC[C@@H]3c4ccc(O)cc4C[C@@H](CCCCCCCCC[S+]([O-])CCCC(F)(F)C(F)(F)F)[C@H]3[C@@H]1CC[C@@H]2O (stereo partly shown) [ICI-182780, reference compound]",effect on ER-α level,[4],down regulation
